{
  "source": "patent US20050272808A1",
  "about": "“Compositions and methods for the treatment of hypertension” (priority 2004, published 2005)",
  "key": {"[1]": {"tested_on": "cultured SV40 transformed cat iris sphincter smooth muscle (SV-CISM-2)", "conditions": "WO 01/39766, cited from earlier work; for elevation of cGMP levels in vitro: SV-CISM-2 cells; for ability to elevate cGMP levels in cultured smooth muscle cells: comparison of the two compounds"}, "[2]": {"tested_on": "Male Sprague-Dawley rats", "assay": "Systemic blood pressure and ECG of normotensive anesthetized rats, i.v. bolus injection", "assay_type": "in vivo", "experimental": "Male Sprague-Dawley rats, weighing 250-350 grams were anaesthetized with mixture of Ketamine (90 mg/Kg body weight) and Xylazine (10 mg/Kg body weight) in a single bolus injection. The rats' chest was shaven; and the rats were secured in supine position. Anaesthetized rats were intubated with 18G catheter, connected to a ventilator [Harvard Apparatus] and ventilated with a room air (volume: 2 ml, rate: 70 per min). The left femoral vein was cannulated for drug administration, which is standardized to injections of 0.2 ml/100 grams body weight over a period of 0.5-1 minutes.\nFor measurement of hemodynamic parameters [blood pressure (BP), heart rate (HR)] a cannula was inserted retrogradely into the left carotid artery. The tip of the catheter was positioned close to the origin of the subclavian artery.\nFor continuous monitoring of blood pressure (systolic and diastolic pressure) and heart rate, the catheter was connected to a pressure transducer [Grass instrument co., Quincy, Mass. USA]. To monitor the ECG (electrocardiogram): two electrodes were connected to the animal's arms and one electrode was connected to its left leg. The monitoring system was calibrated at the beginning of each experiment. Recording all the steps of the calibration. ECG and hemodynamic parameters were recorded continuously during the whole experiment.\nMonitoring rate (speed of paper) was at 5 mm/sec. At different times (stabilization, after injections, blood pressure changes, etc.,) the monitoring rate was changed to 25 mm/sec. In addition routinely, every 5 minutes the monitoring rate was changed to 25 mm/sec. for 15 sec. ECG recordings were obtained at the same times as hemodynamic measurements.\nThe test compound was administered by bolus injection intravenously at different doses (2,4,6,8 mg/Kg body weight). Each dose was administrated twice in the same manner. The second dose was given after the hemodynamic parameters were recovered (or stabilized) following the first injection."}, "[3]": {"tested_on": "Cat iris sphincter smooth muscle (SV-CISM-2) cells", "assay": "cGMP assay (RIA) in cultured smooth muscle cells in presence of IBMX", "assay_type": "cell-based", "conditions": "for cGMP formed % of control / cGMP formed: IBMX present; for cGMP formed: mean±SEM", "experimental": "Cat iris sphincter smooth muscle (SV-CISM-2) cells were maintained in Dulbecco's modified Eagle medium (DMEM), supplemented with 10% fetal calf serum (FCS) and 50 μg/ml gentamicin (culture medium) as described by Ding et al. 1999. (Life Sci. Vol: 64 pp. 161-174) To initiate subculture, confluent SV-CISM-2 cells were washed with Ca^2+-Mg^2+ free Dulbecco's phosphate buffered salt solution (PBS) and treated with 0.05% trypsin in 0.5 mM EDTA for 3 minutes at 37° C. This was followed by addition of culture medium, and the cell suspension was centrifuged at 200 g for 5 minutes. The pelleted cells were suspended in culture medium and seeded in 6-well plates for the cGMP assay. Confluent cells, in 6-well plates were washed once with DMEM and incubated in 2 ml DMEM for 15 minutes at 37° C. IBMX (0.1 mM) was added and incubated for additional 10 minutes. The tested agent was then added and incubations continued for 10 minutes. Anantin (1 μM) or L-NAME (0.1 mM) were added along with IBMX, 10 minutes prior to addition of the tested compound. Reactions were stopped by replacing the medium with 1 ml ice-cold 5% trichloroacetic acid (TCA) (W/V). The obtained samples were homogenized, centrifuged and the supernatants were extracted with anhydrous diethylether. A 100 μl portion of the supernatant from each sample was taken; and after appropriate dilutions cGMP was assayed by radioimmunoassay RIA as described by the aforementioned Ding et al. 1999. Protein content was determinate by the method of Lowry with bovine serum albumin as standard as described in the aforementioned Ding et al. 1999. The data are presented as mean±SEM of three separate experiments with triplicate incubations for each data point."}, "[4]": {"tested_on": "Spontaneously Hypertensive Rats (SHR)", "assay": "Systemic blood pressure of anesthetized Spontaneously Hypertensive Rats (i.v. bolus or p.o. intra stomach)", "assay_type": "in vivo, rat", "experimental": "Spontaneously Hypertensive Rats, (Harlan USA) 290-330 gr weight, were anaesthetized with 100-120 mg/kg Inactin in one single bolus injection i.p. The chest was shaven, and animal was secured in supine position. Anaesthetized rats were subject to tracheotomy with 18G catheter. The left femoral vein was cannulated for drug administration and infusion.\nFor measurement of hemodynamic parameters a cannula was inserted retrogradely into the left carotid artery. The tip of the catheter was positioned close to the origin of the subclavian artery. The catheter was connected to a blood pressure measurement system (BioPac MP100 workstation, BioPac System inc.). ECG was recorded by BioPac MP100 workstation. The information was saved electronically.\nDuring the experiment 1 ml/h of Hartmann's solution was infused i.v.\nAlternatively an 80-125 mg/Kg of MCT-based formulation was injected p.o. intra stomach."}, "[5]": {"conditions": "20 mg/Kg body weight i.v. bolus"}, "[6]": {"conditions": "20 mg/Kg body weight i.v. bolus, 30 minutes after injection"}, "[7]": {"conditions": "4 mg/Kg body weight, single dose"}, "[8]": {"conditions": "8 mg/Kg body weight i.v. bolus, 30 minutes after first injection, FIG. 1A"}, "[9]": {"conditions": "8 mg/Kg body weight i.v. bolus, 30 minutes after first injection, FIG. 1B"}, "[10]": {"conditions": "additional (second) bolus injection 8 mg/Kg, after 30 minutes"}, "[11]": {"conditions": "oral administration, 80 or 125 mg/Kg"}},
  "data": [
    {"smiles": "CCCCCC/C=C\\CCCCCC=O", "note": "[Z-7-Tetradecenal]", "values": [
      {"measurement": "elevation of cGMP levels in vitro", "setting": "[1]", "value": "elevate cGMP levels"}
    ]},
    {"smiles": "CCCC/C=C\\CCCCCCCCCCCC=O", "note": "[Z-13-octadecenal, reference compound]", "values": [
      {"measurement": "effect on blood pressure", "setting": "[2]; 4 mg/Kg body weight bolus, two animals, single and double dose", "value": "no reduction"},
      {"measurement": "effect on blood pressure", "setting": "[2]; 8 mg/Kg body weight bolus injection, five animals, FIG. 2", "value": "uncontrolled reduction in blood pressure in three out of five animals tested"},
      {"measurement": "response of systemic blood pressure in the two surviving animals", "setting": "[2]; 8 mg/Kg body weight, both injections", "value": "minimal or no response"},
      {"measurement": "toxicity of intravenous administration (mortality)", "setting": "[2]; intravenous administration, five animals", "value": "death of three out of five animals tested"},
      {"measurement": "elevation of cGMP levels in vitro", "setting": "[1]", "value": "elevate cGMP levels"},
      {"measurement": "ability to elevate cGMP levels in cultured smooth muscle cells", "setting": "[1]", "value": "comparable ability to elevate cGMP levels"}
    ]},
    {"smiles": "C/C=C/C=C/CCCCCCCO", "note": "[E,E-8,10-Dodecadienol]", "values": [
      {"measurement": "elevation of cGMP levels in vitro", "setting": "[1]", "value": "elevate cGMP levels"}
    ]},
    {"smiles": "COC(=O)[C@@H](N)CCCNC(=N)N[N+](=O)[O-]", "note": "[L-NAME, N^G-nitro-L-arginine methyl ester, reference compound]", "values": [
      {"measurement": "effect on 1,7-dioxaspiro[5.5]undecane-stimulated cGMP formation", "setting": "[3]; tested together with 1,7-dioxaspiro[5.5]undecane 0.1 μM, Anantin 1 μM, L-NAME 100 μM", "value": "attenuated"}
    ]},
    {"smiles": "C1=COC2(CC1)CCCCO2", "note": "(stereo not shown) [1,7-dioxaspiro[5.5]undec-2-ene]", "values": [
      {"measurement": "reduction in diastolic blood pressure (range)", "setting": "[4]; [5]", "value": "20-33%"},
      {"measurement": "reduction in systolic blood pressure (range)", "setting": "[4]; [6]", "value": "18-28%"},
      {"measurement": "duration of effect", "setting": "[4]; 20 mg/Kg i.v. bolus", "value": "about 30 minutes"},
      {"measurement": "time of maximal effect after the injection", "setting": "[4]; 20 mg/Kg i.v. bolus", "value": "35 to 55", "unit": "min"}
    ]},
    {"smiles": "C1CCC2(CCCCO2)OC1", "note": "[1,7-dioxaspiro[5.5]undecane]", "values": [
      {"measurement": "effect on systemic blood pressure", "setting": "[2]; 2 mg/Kg body weight, single and double dose", "value": "no effect"},
      {"measurement": "hypotensive effect after second injection", "setting": "[2]; 4 mg/Kg body weight, second injection of the same dose", "value": "more pronounced"},
      {"measurement": "duration of hypotensive effect", "setting": "[2]; [7]", "value": "about 15 minutes"},
      {"measurement": "effect on systemic blood pressure", "setting": "[2]; [7]", "value": "mild hypotensive effect"},
      {"measurement": "reduction in systolic blood pressure (average)", "setting": "[2]; [8]", "value": 18.1, "unit": "%"},
      {"measurement": "reduction in systolic blood pressure (range)", "setting": "[2]; [8]", "value": "10-30%"},
      {"measurement": "reduction in diastolic blood pressure (average)", "setting": "[2]; [9]", "value": 20.5, "unit": "%"},
      {"measurement": "reduction in diastolic blood pressure (range)", "setting": "[2]; [9]", "value": "7-32%"},
      {"measurement": "reduction in diastolic blood pressure (average)", "setting": "[2]; [10]", "value": 36.5, "unit": "%"},
      {"measurement": "reduction in diastolic blood pressure (range)", "setting": "[2]; [10]", "value": "15-53%"},
      {"measurement": "reduction in systolic blood pressure (average)", "setting": "[2]; [10]", "value": 28.3, "unit": "%"},
      {"measurement": "reduction in systolic blood pressure (range)", "setting": "[2]; [10]", "value": "15-42%"},
      {"measurement": "effect on heart contractility (ECG monitoring)", "setting": "[2]; single and double dosage of 2-8 mg/Kg body weight i.v. bolus", "value": "no effect"},
      {"measurement": "elevation of cGMP levels in vitro", "setting": "[1]", "value": "elevate cGMP levels"},
      {"measurement": "ability to elevate cGMP levels in cultured smooth muscle cells", "setting": "[1]", "value": "comparable ability to elevate cGMP levels"},
      {"measurement": "cGMP formed % of control", "setting": "[3]; 0.1 μM & Anantin (1 μM)", "value": "253 % of control"},
      {"measurement": "cGMP formed", "setting": "[3]; 0.1 μM & Anantin (1 μM)", "value": "1.32 ± 0.1", "unit": "pmol/mg protein/10 min"},
      {"measurement": "cGMP formed % of control", "setting": "[3]; 0.1 μM & L-NAME (100 μM)", "value": "182 % of control"},
      {"measurement": "cGMP formed", "setting": "[3]; 0.1 μM & L-NAME (100 μM)", "value": "0.94 ± 0.15", "unit": "pmol/mg protein/10 min"},
      {"measurement": "cGMP formed % of control", "setting": "[3]; 0.1 μM", "value": "236 % of control"},
      {"measurement": "cGMP formed", "setting": "[3]; 0.1 μM", "value": "1.23 ± 0.1", "unit": "pmol/mg protein/10 min"},
      {"measurement": "increase of cGMP concentration", "setting": "[3]; 0.1 μM, versus control", "value": 2.36, "unit": "times"},
      {"measurement": "reduction in diastolic blood pressure (range)", "setting": "[4]; [5]", "value": "15-28%"},
      {"measurement": "reduction in systolic blood pressure (range)", "setting": "[4]; [6]", "value": "20-30%"},
      {"measurement": "duration of effect", "setting": "[4]; 20 mg/Kg i.v. bolus", "value": "≥ 90", "unit": "min"},
      {"measurement": "time of maximal effect after the injection", "setting": "[4]; 20 mg/Kg i.v. bolus", "value": "110 to 120", "unit": "min"},
      {"measurement": "reduction in systolic blood pressure (range)", "setting": "[4]; oral administration, 80 mg/Kg body weight, after 150 minutes", "value": "15-28%"},
      {"measurement": "reduction in systolic blood pressure (range)", "setting": "[4]; oral administration, 80 mg/Kg, after 150 minutes, stated under FIG. 5B (diastolic blood pressure)", "value": "20-30%"},
      {"measurement": "reduction in systolic blood pressure (range)", "setting": "[4]; oral administration, 125 mg/Kg, 150 minutes post injection", "value": "30-45%"},
      {"measurement": "reduction in systolic blood pressure (range)", "setting": "[4]; oral administration, 125 mg/Kg, after 150 minutes, stated under FIG. 5B (diastolic blood pressure)", "value": "40-53%"},
      {"measurement": "duration of effect", "setting": "[4]; [11]", "value": "about an hour"},
      {"measurement": "time of maximal effect after the injection", "setting": "[4]; [11]", "value": "150 to 220", "unit": "min"}
    ]},
    {"smiles": "CCCC/C=C\\CCCCCCCCCCOC(C)=O", "note": "[Z-11-Hexadecenyl-Acetate]", "values": [
      {"measurement": "elevation of cGMP levels in vitro", "setting": "[1]", "value": "elevate cGMP levels"}
    ]}
  ]
}
